Assay results: the Kinase Knowledgebase extract (Sharma et al. 2016)
Converted amounts (≈) assume the structure as drawn.

Biological target: EGFR (UniProt P00533)
Sequence (P00533 whole entry, looked up): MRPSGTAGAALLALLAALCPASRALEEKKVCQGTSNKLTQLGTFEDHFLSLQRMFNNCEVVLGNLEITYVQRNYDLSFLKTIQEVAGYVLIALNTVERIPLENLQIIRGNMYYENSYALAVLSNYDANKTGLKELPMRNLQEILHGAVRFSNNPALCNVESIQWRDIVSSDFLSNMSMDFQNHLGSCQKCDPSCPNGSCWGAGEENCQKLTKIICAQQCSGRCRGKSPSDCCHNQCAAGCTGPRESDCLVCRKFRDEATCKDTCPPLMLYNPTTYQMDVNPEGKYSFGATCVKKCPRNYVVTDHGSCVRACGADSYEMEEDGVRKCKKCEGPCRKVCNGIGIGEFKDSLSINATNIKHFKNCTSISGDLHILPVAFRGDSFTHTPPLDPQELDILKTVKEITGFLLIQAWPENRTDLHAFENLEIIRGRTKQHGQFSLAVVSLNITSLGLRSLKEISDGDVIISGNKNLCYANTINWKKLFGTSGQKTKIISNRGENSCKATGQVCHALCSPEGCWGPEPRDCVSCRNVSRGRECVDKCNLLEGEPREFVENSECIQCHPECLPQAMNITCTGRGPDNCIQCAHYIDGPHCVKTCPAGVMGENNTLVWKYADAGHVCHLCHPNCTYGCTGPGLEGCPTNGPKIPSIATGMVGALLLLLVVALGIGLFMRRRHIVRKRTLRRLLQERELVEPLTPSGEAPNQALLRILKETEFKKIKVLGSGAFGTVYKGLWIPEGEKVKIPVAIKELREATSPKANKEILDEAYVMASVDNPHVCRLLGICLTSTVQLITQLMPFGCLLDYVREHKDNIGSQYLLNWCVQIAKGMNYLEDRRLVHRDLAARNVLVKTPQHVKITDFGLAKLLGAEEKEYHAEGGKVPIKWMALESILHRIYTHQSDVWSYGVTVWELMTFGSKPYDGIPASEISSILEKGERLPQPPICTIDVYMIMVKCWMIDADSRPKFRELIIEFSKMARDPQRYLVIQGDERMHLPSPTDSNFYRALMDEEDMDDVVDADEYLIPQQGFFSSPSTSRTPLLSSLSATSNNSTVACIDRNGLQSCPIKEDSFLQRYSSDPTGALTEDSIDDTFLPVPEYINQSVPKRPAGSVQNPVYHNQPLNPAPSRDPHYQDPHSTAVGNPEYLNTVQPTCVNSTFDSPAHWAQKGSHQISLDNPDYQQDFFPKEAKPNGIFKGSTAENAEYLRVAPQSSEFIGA

| Structure (SMILES) | IC50 [mg/L] |
| --- | --- |
| NS(=O)(=O)c1ccc(CNc2ncnc(-n3c(=O)[nH]c4ccccc43)n2)cc1 | > 4.5 |
| O=c1[nH]c2ccccc2n1-c1ncnc(Nc2ccc(OC(F)(F)F)cc2)n1 | > 4.5 |
| CN(c1cccc(Cl)c1)c1ncnc(Nc2ccncc2)n1 | < 0.4 |
| COc1cc(Nc2ncnc(Nc3cc(OC)c(OC)c(OC)c3)n2)cc(OC)n1 | 2.4 to 3.5 (≈ 5.79 to 8.45 µM) |
| COc1cc(Nc2ncnc(-n3c(N[C@H](CO)c4ccccc4)nc4ccccc43)n2)cc(OC)c1OC | > 4.5 |
| COc1ccc(CNc2ncccc2-c2ncnc(Nc3cc(OC)c(OC)c(OC)c3)n2)cc1 | > 4.5 |
| CN(c1ccc2c(cnn2Cc2ccccc2)c1)c1ncnc(Nc2cccc(Cn3ccnn3)c2)n1 | < 0.4 |
| O=c1[nH]c2ccccc2n1-c1ncnc(Nc2cnc3ccccc3c2)n1 | > 4.5 |
| Nc1ncnc(Nc2cccc(C(F)(F)F)c2)n1 | > 4.5 |
| COc1ccccc1Nc1ncnc(-n2cccc2)n1 | > 4.5 |
| COc1ccc(Nc2ncnc(N(C)CCc3ccccn3)n2)cc1OC | 0.4 to 2.4 (≈ 1.09 to 6.55 µM) |
| COc1cc(Nc2ncnc(-n3c(NCc4ccccc4Cl)nc4ccccc43)n2)cc(OC)c1OC | > 4.5 |
| COc1cc(Nc2ncnc(-c3cccnc3Nc3cc(Cl)cc(Cl)c3)n2)cc(OC)c1OC | > 4.5 |
| COc1cc(Nc2ncnc(-n3ncc(-c4ccccc4)c3N)n2)cc(OC)c1OC | 2.4 to 3.5 (≈ 5.72 to 8.34 µM) |
| COc1cc(Nc2ncnc(N3CCN(c4ccccn4)CC3)n2)cc(OC)c1OC | > 4.5 |
| COc1ccc([C@@H](C)Nc2nc3ccccc3n2-c2ncnc(Nc3cc(OC)c(OC)c(OC)c3)n2)cc1 | > 4.5 |
| NC(=O)[C@H](CO)Nc1ncnc(-n2c(=O)[nH]c3ccccc32)n1 | > 4.5 |
| COc1cc(Nc2ncnc(Nc3cccc(CN4CCN(C)CC4)c3)n2)cc(OC)c1OC | > 4.5 |
| C=CCNc1nc2ccccc2n1-c1ncnc(Nc2cc(OC)c(OC)c(OC)c2)n1 | > 4.5 |
| COc1cc(Nc2ncnc(-c3cccnc3NCCC(C)(C)C)n2)cc(OC)c1OC | > 4.5 |
| c1ccc(Cn2ncc3cc(Nc4ncnc(NCC5CCCCC5)n4)ccc32)cc1 | > 4.5 |

| Structure (SMILES) | IC50 [mg/L] |
| --- | --- |
| COc1cc(Nc2ncnc(N(CC(=O)OC(C)(C)C)c3ccc(Cl)cc3)n2)cc(OC)c1OC | 0.4 to 2.4 (≈ 0.797 to 4.78 µM) |
| COc1cc(Nc2ncnc(-n3cc(C#N)c4ccccc43)n2)cc(OC)c1OC | > 4.5 |
| COCCOc1ccc(Nc2ncnc(-n3c(N)nc4ccccc43)n2)cc1OC | 3.5 to 4.5 (≈ 8.59 to 11 µM) |
| COc1cc(Nc2ncnc(Nc3cc(F)ccc3F)n2)cc(OC)c1OC | 0.4 to 2.4 (≈ 1.03 to 6.16 µM) |
| COc1cc(Nc2ncnc(-n3c(N)nc4cc([N+](=O)[O-])ccc43)n2)cc(OC)c1OC.COc1cc(Nc2ncnc(-n3c(N)nc4ccc([N+](=O)[O-])cc43)n2)cc(OC)c1OC | > 4.5 |
| CCN(c1ccc(C)cc1)c1ncnc(Nc2cc(OC)c(OC)c(OC)c2)n1 | < 0.4 |
| Cc1ccc2c(c1)CCCN2c1ncnc(NCCc2cccnc2)n1 | > 4.5 |
| COc1ncnc(Nc2cc(OC)c(OC)c(OC)c2)n1 | > 4.5 |
| CN(c1cccc(Cl)c1)c1ncnc(Nc2ncccn2)n1 | < 0.4 |
| Cc1ccc2c(c1)CCCN2c1ncnc(Nc2ccc(F)c(F)c2)n1 | 0.4 to 2.4 (≈ 1.13 to 6.79 µM) |
| O=c1[nH]c2ccccc2n1-c1ncnc(Nc2cccc3ccccc23)n1 | > 4.5 |
| COc1cc(Nc2ncnc(-n3c(NCc4ccc(Cl)cc4F)nc4ccccc43)n2)cc(OC)c1OC | > 4.5 |
| COc1cc(Nc2ncnc(Nc3nccs3)n2)cc(OC)c1OC | > 4.5 |
| COc1cc(Nc2ncnc(-c3cccnc3Nc3ccc4c(c3)CCC4)n2)cc(OC)c1OC | > 4.5 |
| Cc1ccc2c(c1)CCCN2c1ncnc(NCCc2c[nH]c3ccccc23)n1 | > 4.5 |
| COc1cc(Nc2ncnc(-n3c(NCc4ccccc4C)nc4ccccc43)n2)cc(OC)c1OC | > 4.5 |
| COc1cc(Nc2ncnc(-c3ccc(N4CCNCC4)nc3)n2)cc(OC)c1OC | 3.5 to 4.5 (≈ 8.26 to 10.6 µM) |
| COc1ccc(Nc2ncnc(-n3c(N)nc4ccccc43)n2)cn1 | > 4.5 |
| O=c1[nH]c2ccccc2n1-c1ncnc(Nc2cc(C(F)(F)F)cc(C(F)(F)F)c2)n1 | > 4.5 |
| COc1cc(Nc2ncnc(-n3c(NCc4cccc(C)c4)nc4ccccc43)n2)cc(OC)c1OC | > 4.5 |
| COc1cc(Nc2ncnc(N3CCc4ccccc43)n2)cc(OC)c1OC | > 4.5 |

| Structure (SMILES) | IC50 [mg/L] |
| --- | --- |
| COc1cc(Nc2ncnc(-c3cccnc3NCCCN)n2)cc(OC)c1OC | > 4.5 |
| COc1cc(Nc2ncnc(-n3c(NCc4ncc[nH]4)nc4ccccc43)n2)cc(OC)c1OC | > 4.5 |
| COc1cc(Nc2ncnc(Nc3cc(OC)c(OC)c(OC)c3)n2)ccc1OCCN1CCOCC1 | 0.4 to 2.4 (≈ 0.78 to 4.68 µM) |
| COc1cc(Nc2ncnc(-c3ccc(NCCCO)nc3)n2)cc(OC)c1OC | > 4.5 |
| COc1cc(Nc2ncnc(-n3c(NC4CCc5ccccc54)nc4ccccc43)n2)cc(OC)c1OC (stereo not given) | 2.4 to 3.5 (≈ 4.71 to 6.87 µM) |
| COc1cc(Nc2ncnc(NC3CCc4ccccc43)n2)cc(OC)c1OC (stereo not given) | 0.4 to 2.4 (≈ 1.02 to 6.1 µM) |
| Cc1ccc2c(c1)CCCN2c1ncnc(NCCCn2ccnc2)n1 | > 4.5 |
| CN(C)CCNc1ncnc(Nc2ccc3c(cnn3Cc3ccccc3)c2)n1 | 0.4 to 2.4 (≈ 1.03 to 6.18 µM) |
| COc1ccc2c(c1)c(CCN(C)C)cn2-c1ncnc(Nc2cc(OC)c(OC)c(OC)c2)n1 | > 4.5 |
| COc1cc(Nc2ncnc(-c3cccnc3NCc3ccccc3OC(F)(F)F)n2)cc(OC)c1OC | > 4.5 |
| COc1cc(Nc2ncnc(-c3cccnc3Nc3cccc(OCc4ccccc4)c3)n2)cc(OC)c1OC | 3.5 to 4.5 (≈ 6.52 to 8.39 µM) |
| Nc1nc2ccccc2n1-c1ncnc(Nc2ccc(S(N)(=O)=O)cc2)n1 | > 4.5 |
| Nc1nc2ccccc2n1-c1ncnc(Nc2ccccc2)n1 | > 4.5 |
| COc1cc(Nc2ncnc(-n3c(NC(CCO)c4ccccc4)nc4ccccc43)n2)cc(OC)c1OC (stereo not given) | > 4.5 |
| COc1ccc(Nc2ncnc(N(C)c3ccccc3)n2)cc1OC | < 0.4 |
| CN(c1cccc(Cl)c1)c1ncnc(NC2CCN(Cc3ccccc3)CC2)n1 | 0.4 to 2.4 (≈ 0.978 to 5.87 µM) |
| COc1cc(Nc2ncnc(-n3c(NCCc4ccncc4)nc4ccccc43)n2)cc(OC)c1OC | > 4.5 |
| COc1cc(Nc2ncnc(-n3c(NCc4nccs4)nc4ccccc43)n2)cc(OC)c1OC | 2.4 to 3.5 (≈ 4.89 to 7.13 µM) |
| COc1cc(Nc2ncnc(-n3ccc4ccccc43)n2)cc(OC)c1OC | > 4.5 |

Other lines, results leading:

| IC50 [mg/L] | Structure (SMILES) |
| --- | --- |
| > 4.5 | COc1cc(Nc2ncnc(NC(=O)NCCc3ccccc3)n2)cc(OC)c1OC |
| 0.4 to 2.4 (≈ 1.01 to 6.07 µM) | COc1cc(Nc2ncnc(Nc3cccc(C(C)=O)c3)n2)cc(OC)c1OC |
| 3.5 to 4.5 (≈ 7.41 to 9.52 µM) | COC(=O)c1ccc(-c2cc(Nc3ncnc(Nc4ccc(N5CCOCC5)cc4)n3)[nH]n2)cc1 |
| > 4.5 | COC(=O)c1ccc(-c2cc(Nc3ncnc(Nc4cccc(C(N)=O)c4)n3)[nH]n2)cc1 |
| 0.4 to 2.4 (≈ 1.11 to 6.68 µM) | COc1cccc(Nc2ncnc(Nc3cc(-c4ccccc4)n[nH]3)n2)c1 |
| > 4.5 | COc1cc(Nc2ncnc(Nc3ccc4c(c3)Cc3ccccc3-4)n2)cc(OC)c1OC |
| > 4.5 | COCCOc1ccc(Nc2ncnc(-c3ccccc3)n2)cc1 |
| > 4.5 | NC(=O)c1cccc(Nc2ncnc(-c3ccccc3)n2)c1 |
| < 0.4 | COCCOc1ccc(Nc2ncnc(Nc3ccc4[nH]ccc4c3)n2)cc1OCCOC |
| > 4.5 | COC(=O)c1cccc(Nc2nc3ccccc3n2-c2ncnc(Nc3cc(OC)c(OC)c(OC)c3)n2)c1 |
| 0.4 to 2.4 (≈ 0.991 to 5.95 µM) | NC(=O)c1ccc(Nc2ncnc(-c3cccnc3NCc3cccs3)n2)cc1 |
| 0.4 to 2.4 (≈ 0.905 to 5.43 µM) | CN(c1cccc(Cl)c1)c1ncnc(Nc2ccc3c(cnn3Cc3ccccc3)c2)n1 |
| 2.4 to 3.5 (≈ 5.23 to 7.63 µM) | CC(C)(C)OC(=O)NCc1cccc(Nc2ncnc(Nc3cc(-c4ccccc4)n[nH]3)n2)c1 |
| 2.4 to 3.5 (≈ 6.59 to 9.61 µM) | COc1ccc(Nc2ncnc(-n3c(=O)[nH]c4ccccc43)n2)cc1OC |
| 2.4 to 3.5 (≈ 6.93 to 10.1 µM) | NC(=O)c1ccc(Nc2ncnc(-n3c(N)nc4ccccc43)n2)cc1 |
| < 0.4 | Clc1cccc(Nc2ncnc(Nc3cc(-c4ccccc4)n[nH]3)n2)c1 |
| 0.4 to 2.4 (≈ 0.898 to 5.39 µM) | COC(=O)c1ccc(-c2cc(Nc3ncnc(Nc4cccc(CC(=O)O)c4)n3)[nH]n2)cc1 |
| 0.4 to 2.4 (≈ 0.923 to 5.54 µM) | COc1cc(Nc2ncnc(Nc3cc(-c4cccc(C)c4)n[nH]3)n2)cc(OC)c1OC |
| 0.4 to 2.4 (≈ 1.21 to 7.24 µM) | CCc1ccc(Nc2ncnc(-n3c(N)nc4ccccc43)n2)cc1 |
| > 4.5 | O=c1[nH]c2ccccc2n1-c1ncnc(Nc2cccc(OC(F)(F)F)c2)n1 |
| > 4.5 | CC(=O)Nc1ccc(Nc2ncnc(-c3cccs3)n2)cc1 |
| < 0.4 | COc1cc(Nc2ncnc(Nc3ccc4[nH]ncc4c3)n2)cc(OC)c1OC |

| IC50 [mg/L] | Structure (SMILES) |
| --- | --- |
| > 4.5 | COc1ccc(Nc2ncnc(NCc3ccc(C)c(Cl)c3)n2)cc1OC |
| < 0.4 | COc1ccc(Nc2ncnc(Nc3ccc(C)c(O)c3)n2)cc1OC |
| 0.4 to 2.4 (≈ 1.13 to 6.79 µM) | COc1cc(Nc2ncnc(Nc3ccccc3)n2)cc(OC)c1OC |
| > 4.5 | CCOc1cccc(Nc2ncnc(Nc3ccc(OC)c(OC)c3)n2)c1 |
| 0.4 to 2.4 (≈ 0.805 to 4.83 µM) | Clc1cc(Nc2ncnc(Nc3ccc4c(cnn4Cc4ccccc4)c3)n2)cc(Cl)c1Cl |
| 0.4 to 2.4 (≈ 1.08 to 6.48 µM) | Nc1nc2ccccc2n1-c1ncnc(Nc2cccc(-c3cnco3)c2)n1 |
| < 0.4 | Cc1ccc2c(c1)CCCN2c1ncnc(Nc2cccc(Cc3nnn[nH]3)c2)n1 |
| 3.5 to 4.5 (≈ 7.49 to 9.62 µM) | COc1ccc(CNc2ncnc(Nc3ccc4c(cnn4Cc4ccccc4)c3)n2)cc1OC |
| < 0.4 | CN(c1cccc(Cl)c1)c1ncnc(Nc2ccc3nn(Cc4ccccc4)cc3c2)n1 |
| > 4.5 | COc1cc(Nc2ncnc(-n3c(Nc4ccccc4C(N)=O)nc4ccccc43)n2)cc(OC)c1OC |
| < 0.4 | COc1ccc(Nc2ncnc(Nc3ccccc3C)n2)cc1OC |
| > 4.5 | COc1cc(Nc2ncnc(Nc3nc4ccccc4n3C)n2)cc(OC)c1OC |
| 0.4 to 2.4 (≈ 0.991 to 5.95 µM) | COc1cc(Nc2ncnc(Nc3ccc4ccccc4c3)n2)cc(OC)c1OC |
| 3.5 to 4.5 (≈ 7.87 to 10.1 µM) | COC(=O)c1ccc(-c2cc(Nc3ncnc(Nc4cccc(CC(N)=O)c4)n3)[nH]n2)cc1 |
| 0.4 to 2.4 (≈ 1.01 to 6.07 µM) | COc1cc(Nc2ncnc(NC(=O)Cc3ccccc3)n2)cc(OC)c1OC |
| 2.4 to 3.5 (≈ 6.05 to 8.83 µM) | COc1cc(Nc2ncnc(Nc3ccc(N(C)C)cc3)n2)cc(OC)c1OC |
| > 4.5 | COc1cc(Nc2ncnc(-n3c(Nc4cccc(C)c4)nc4ccccc43)n2)cc(OC)c1OC |
| > 4.5 | COc1cc(Nc2ncnc(Nc3cccc(OCc4ccccc4)c3)n2)cc(OC)c1OC |
| > 4.5 | COc1cc(C)c(Nc2ncnc(Nc3cc(-c4ccc(C)cc4)n[nH]3)n2)cc1OC |
| > 4.5 | COc1cccc(NC(=O)Nc2ncnc(Nc3cc(OC)c(OC)c(OC)c3)n2)c1 |
| 2.4 to 3.5 (≈ 5.54 to 8.08 µM) | O=C(Nc1cccc(Nc2ncnc(-n3c(=O)[nH]c4ccccc43)n2)c1)O[C@@H]1CCOC1 |
| 2.4 to 3.5 (≈ 6.39 to 9.32 µM) | COC(=O)Cc1cccc(Nc2ncnc(-n3c(N)nc4ccccc43)n2)c1 |
